Laboratory results published in PMC5811830 (Journal of Clinical Pharmacology, 2017).
Like-named read-outs stand apart in the source and are kept apart here.

Columns and labels:
[1] = assay type: in vivo, human; settings: for Cmax geometric least-squares mean ratio (90%CI) (test/reference): with vs without ketoconazole
[2] = assay type: in vivo, human; settings: for AUC0-264 geometric least-squares mean ratio (90%CI) (test/reference) / Cmax geometric least-squares mean ratio (90%CI) (test/reference): with vs without clarithromycin
[3] = assay type: in vivo, human; settings: for Reduction of Cmax in the presence of rifampin: ixazomib 4 mg oral, rifampin 600 mg once daily; for AUC0-last geometric least-squares mean ratio (90%CI) (test/reference) / Cmax geometric least-squares mean ratio (90%CI) (test/reference): with vs without rifampin
[4] = Treatment-emergent adverse events and on-study deaths in the DDI study arms; assay type: in vivo, human
[5] = Period effect analysis; assay type: in vivo, human; settings: pooled ketoconazole DDI, food effect and relative bioavailability arms
[6] = test system: CYP3A4; settings: higher than clinical concentrations; cited from earlier work
[7] = test system: CYP1A2; settings: higher than clinical concentrations; cited from earlier work
[8] = test system: CYP2B6; settings: higher than clinical concentrations; cited from earlier work
[9] = test system: CYP2C8; settings: higher than clinical concentrations; cited from earlier work
[10] = test system: CYP2D6; settings: higher than clinical concentrations; cited from earlier work
[11] = test system: CYP2C19; settings: higher than clinical concentrations; cited from earlier work
[12] = test system: CYP2C9; settings: higher than clinical concentrations; cited from earlier work
[13] = humans; cited from earlier work
[14] = clinically relevant exposures; cited from earlier work
[15] = test system: P‐glycoprotein (P‐gp); settings: in vitro data; cited from earlier work
[16] = test system: intestinal P‐gp; settings: multiple doses of rifampin, duodenal biopsies, Western blotting; cited from earlier work
[17] = cited from earlier work
[18] = test condition: ixazomib 4 mg oral day 8 with rifampin 600 mg once daily, N = 16
[19] = Clarithromycin arm (N = 21), cycle 1 only
[20] = Rifampin arm (N = 38), test and reference groups

## CC(C)C[C@H](NC(=O)CNC(=O)c1cc(Cl)ccc1Cl)B(O)O [ixazomib]
[1]; test condition: ixazomib 2.5 mg oral, period 2 with ketoconazole
  Geometric mean AUC0-264, h·ng/mL (%CV), not corrected for the period effect: 1150 (46) h·ng/mL
[1]
  Cmax geometric least-squares mean ratio (90%CI) (test/reference): 1.01
[1]; listed as Ixazomib
  Cmax geometric least-squares mean ratio (90%CI) (test/reference): 1.01 (0.78‐1.30)
[2]; observed, ketoconazole and clarithromycin DDI studies
  Increase in AUC with the strong CYP3A inhibitors ketoconazole and clarithromycin: ≤ 11%
[2]
  AUC0-264 geometric least-squares mean ratio (90%CI) (test/reference): 1.11
  Cmax geometric least-squares mean ratio (90%CI) (test/reference): 0.96
[2]; listed as Ixazomib
  AUC0-264 geometric least-squares mean ratio (90%CI) (test/reference): 1.11 (0.86‐1.43)
  Cmax geometric least-squares mean ratio (90%CI) (test/reference): 0.96 (0.67‐1.36)
[3]
  Reduction of Cmax in the presence of rifampin: 54%
  AUC0-last geometric least-squares mean ratio (90%CI) (test/reference): 0.26
  Cmax geometric least-squares mean ratio (90%CI) (test/reference): 0.46
[3]; listed as Ixazomib
  Reduction of Cmax in the presence of rifampin: approximately 54%
  AUC0-last geometric least-squares mean ratio (90%CI) (test/reference): 0.26 (0.18‐0.37)
  Cmax geometric least-squares mean ratio (90%CI) (test/reference): 0.46 (0.29‐0.73)
[3]; [18]
  Geometric mean AUC0-last, h·ng/mL (%CV): 232 (50) h·ng/mL
  Geometric mean Cmax, ng/mL (%CV): 25.7 (50) ng/mL
  Median Tmax, h (range): 1.45 (0.5‐4.12) h
[4]; [19]
  Any AE, n (%): 16 (76) n (%)
  Any drug-related AE, n (%): 4 (19) n (%)
  Any drug-related grade ≥3 AE, n (%): 0 n (%)
  Any drug-related serious AE, n (%): 0 n (%)
  Any grade ≥3 AE, n (%): 2 (10) n (%)
  Any serious AE, n (%): 2 (10) n (%)
  On-study deaths, n (%): 0 n (%)
[4]; Ketoconazole arm (N = 29)
  AE leading to discontinuation, n (%): 8 (28) n (%)
  Any AE, n (%): 29 (100) n (%)
  Any drug-related AE, n (%): 27 (93) n (%)
  Any drug-related grade ≥3 AE, n (%): 10 (34) n (%)
  Any drug-related serious AE, n (%): 3 (10) n (%)
  Any grade ≥3 AE, n (%): 18 (62) n (%)
  Any serious AE, n (%): 12 (41) n (%)
  On-study deaths, n (%): 2 (7) n (%)
[4]; [20]
  AE leading to discontinuation, n (%): 4 (11) n (%)
  Any AE, n (%): 37 (97) n (%)
  Any drug-related AE, n (%): 32 (84) n (%)
  Any drug-related grade ≥3 AE, n (%): 7 (18) n (%)
  Any drug-related serious AE, n (%): 2 (5) n (%)
  Any grade ≥3 AE, n (%): 15 (39) n (%)
  Any serious AE, n (%): 7 (18) n (%)
  On-study deaths, n (%): 1 (3) n (%)
[4]; Total (N = 88)
  AE leading to discontinuation, n (%): 13 (15) n (%)
  Any AE, n (%): 82 (93) n (%)
  Any drug-related AE, n (%): 63 (72) n (%)
  Any drug-related grade ≥3 AE, n (%): 17 (19) n (%)
  Any drug-related serious AE, n (%): 5 (6) n (%)
  Any grade ≥3 AE, n (%): 35 (40) n (%)
  Any serious AE, n (%): 21 (24) n (%)
  On-study deaths, n (%): 3 (3) n (%)
[4]; across the 3 DDI study arms (N = 88)
  Patients with a study drug-related AE: 72%
[4]; across the 3 study arms, 17 patients
  Patients with study drug-related grade 3 AEs: 19%
[4]; across the 3 study arms, 35 patients
  Patients with grade ≥3 AEs: 40%
[4]; across the 3 study arms, n = 2
  Study drug-related grade 3 AE: thrombocytopenia: 2%
  Study drug-related grade 3 AE: vomiting: 2%
[4]; across the 3 study arms, n = 3
  Study drug-related grade 3 AE: diarrhea: 3%
  Study drug-related grade 3 AE: nausea: 3%
[4]; across the 3 study arms, n = 9
  Study drug-related grade 3 AE: fatigue: 10%
[4]; across the 3 study arms, n = 10
  Study drug-related AE: weight loss: 11%
[4]; across the 3 study arms, n = 12
  Study drug-related AE: dehydration: 14%
[4]; across the 3 study arms, n = 13
  Study drug-related AE: asthenia: 15%
[4]; across the 3 study arms, n = 15
  Study drug-related AE: decreased appetite: 17%
[5]
  Magnitude of the period effect (period 2 AUC vs period 1 AUC), pooled analysis: 1.91 fold
[6]
  Estimated relative contribution of 3A4 to metabolism: 42%
[7]
  Estimated relative contribution of 1A2 to metabolism: 26%
[8]
  Estimated relative contribution of 2B6 to metabolism: 16%
[9]
  Estimated relative contribution of 2C8 to metabolism: 6%
[10]
  Estimated relative contribution of 2D6 to metabolism: 5%
[11]
  Estimated relative contribution of 2C19 to metabolism: 5%
[12]
  Estimated relative contribution of 2C9 to metabolism: < 1%
[13]
  Orally administered radiolabeled ixazomib recovered in urine: 62%
  Urinary excretion representing the parent drug: < 3.5%
[14]
  Effect on the QTc interval: does not prolong the QTc interval
[15]
  P-gp substrate status: low‐affinity substrate

## CO[C@H]1/C=C/O[C@@]2(C)Oc3c(C)c(O)c4c(O)c(c(/C=N/N5CCN(C)CC5)c(O)c4c3C2=O)NC(=O)/C(C)=C\C=C\[C@H](C)[C@H](O)[C@@H](C)[C@@H](O)[C@@H](C)[C@H](OC(C)=O)[C@@H]1C [rifampin]
[16]
  Assumed increase in intestinal P-gp activity: 4 fold

## COc1cc2nccc(Oc3ccc(NC(=O)Nc4cc(C)on4)c(Cl)c3)c2cc1OC [tivozanib]
[17]; ketoconazole 400 mg/day
  Effect of steady-state ketoconazole on tivozanib AUC: did not alter
[17]; rifampin 600 mg/day
  Decrease in tivozanib AUC with rifampin: 53%
